Results as given in patent US11512203B2, “Water-soluble azo compound or salt thereof, ink and recording medium” (Nippon Kayaku Kabushiki Kaisha, priority 2016, dated 2022).

Assay: Xenon light resistance test, ink of Example 18 (Table 58)
Format: physicochemical
Settings: for each glossy paper (Table 58)
Method: An ink of Example 18 was prepared as in Example 1 except that the compound represented by the above formula (200) was used instead of the compound represented by the above formula (101).
Ink-jet recording was performed with an ink-jet printer (Canon, Inc., Product name: PIXUS ip7230) to allow each of the inks from Example 18 and Comparative Examples 1, 2 above to be attached on the following glossy papers 1 to 4. Upon performing recording, image patterns were created so that the density can be obtained in a gradation of 6 levels: 100%, 85%, 70%, 55%, 40%, and 25% to obtain a half-tone recorded article. The resulting recorded article was used as a test piece to perform the following tests.
Glossy paper 1: Canon, Inc., Product name: Canon Photograph paper, platinum grade (PT-201)
Glossy paper 2: Seiko Epson Corporation, Product name: Photograph paper Crispia
Glossy paper 3: Brother Industries, Ltd., Product name: BP71G
Glossy paper 4: FUJIFILM Corporation, Product name: Gasai Photo-finishing Pro
When required, color measurements of a recorded image were performed using a colorimeter (Product name SpectroEye from X-rite, Inc.). Color measurements were performed under the conditions of a density standard of DIN NB, a wide viewing angle of 2 degrees, a light source of D65. […]

light resistance tests, results compared with Comparative Examples 1, 2: better results
Compound: O=S(=O)(O)CCCOc1cc(N=Nc2ccc(Cl)c(S(=O)(=O)O)c2)c(Cl)cc1Nc1nc(Nc2cc(Cl)c(N=Nc3ccc(Cl)c(S(=O)(=O)O)c3)cc2OCCCS(=O)(=O)O)nc(N2CCN(c3nc(Nc4cc(Cl)c(N=Nc5ccc(Cl)c(S(=O)(=O)O)c5)cc4OCCCS(=O)(=O)O)nc(Nc4cc(Cl)c(N=Nc5ccc(Cl)c(S(=O)(=O)O)c5)cc4OCCCS(=O)(=O)O)n3)CC2)n1 [Example 18]
